Here are results for 1 molecule from patent US20020142033A1, “Method for treating incontinence” (priority 1998, published 2002).

The conditions of this data set: human, in vivo.

With `CCNCC#CCOC(=O)C(O)(c1ccccc1)C1CCCCC1` (stereo not shown) [desethyloxybutynin], the “t½ of DESOXY compared to OXY” value is listed as “shorter t½ life compared to OXY”.
